The record followed here is ChEMBL document CHEMBL1142794, “New alpha-methylene-gamma-butyrolactones with antimycobacterial properties” (2005).

Molecules are shown by their SMILES. Converted amounts (≈) assume the structure as drawn.

In one test the test system is Mycobacterium tuberculosis variant bovis. Description: In vitro minimum inhibitory concentration dissolved in DMSO against Mycobacterium bovis BCG using BACTEC 460 radiometric system. Format: functional.
What is called MIC99 is an inhibitory concentration at the 99% level, which refers to growth in some studies and to a panel of isolates in others. As for `C=CCNC(=O)[C@@H]1C(=C)C(=O)O[C@H]1CCCCCC`, the MIC99 was determined as 12.5 µg/mL (≈ 47.1 µM). In turn, `C=C1C(=O)O[C@@H](CCCCCCCC)[C@@H]1C(=O)NCC(=O)O` came in with an MIC99 of over 25 µg/mL. In turn, `C=C1C(=O)O[C@@H](CCCCCCCC)[C@@H]1C(=O)NCC(=O)OC` yielded an MIC99 of 25 µg/mL (≈ 76.8 µM). Still for that read-out and setting: the figure for `C=C1C(=O)O[C@@H](CCCCCCCC)C1C(=O)O` (stereo not given in full) is over 25 µg/mL; for `C=C1C(=O)O[C@@H](CCCCCCCC)C1C(=O)OC` (stereo not given in full) it is over 25 µg/mL. Compound `C=C1C(=O)O[C@@H](CCCCCCCC)[C@@H]1C(=O)NNc1cccc(Cl)c1` had an MIC99 of over 25 µg/mL. Still for that read-out and setting: the figure for `C=CCNC(=O)[C@@H]1C(=C)C(=O)O[C@H]1CCCCCCCCCCCC` is 6.25 µg/mL (≈ 17.9 µM); for `C=C1C(=O)O[C@@H](CCCCCCCC)[C@@H]1C(=O)NCc1ccccc1` it is 25 µg/mL (≈ 72.8 µM); for `CCCC[C@@H]1OC(=O)C(=O)C1C(=O)OC` (stereo not given in full) it is over 25 µg/mL. On to `C=CCNC(=O)[C@H]1[C@H](CCCCCCCC)OC(=O)[C@H]1C`, for which the MIC99 is over 25 µg/mL. The compound `C=CCNC(=O)[C@H]1[C@H](CCCCCCCC)OC(=O)[C@@H]1C` gave an MIC99 of over 25 µg/mL. On to `C=CCNC(=O)[C@@H]1C(=C)C(=O)O[C@H]1CCCCCCCC`, for which the MIC99 stood at 12.5 µg/mL (≈ 42.6 µM). On the same count and under the same terms, as for `C=C1C(=O)O[C@@H](CCCCCCCC)[C@@H]1C(=O)NCCO`, the figure is 25 µg/mL (≈ 84.1 µM); as for `CCCCCCCCCC[C@@H]1OC(=O)C(=O)C1C(=O)OC` (stereo not given in full), over 25 µg/mL; as for `CCCCCCCC[C@@H]1OC(=O)C(=O)C1C(=O)OC` (stereo not given in full), over 25 µg/mL.

With `C=CCNC(=O)[C@@H]1C(=C)C(=O)O[C@H]1CCCC`, the MIC99 is 12.5 µg/mL (≈ 52.7 µM). On the same count and under the same terms, the figure for `C=C1C(=O)O[C@@H](CCCCCCCC)[C@@H]1C(=O)NC/C=C/CC(=O)OC` is 25 µg/mL (≈ 68.4 µM); for `C=CCNC(=O)OCCNC(=O)[C@@H]1C(=C)C(=O)O[C@H]1CCCCCCCC` it is over 25 µg/mL. Compound `NNC(=O)c1ccncc1` [ISONIAZID] returned an MIC99 of 0.1 µg/mL (≈ 0.729 µM).

Another test shares this test system. Description: In vitro minimum inhibitory concentration dissolved in DMSO against Mycobacterium bovis BCG using BACTEC 460 radiometric system; Range=0.75-1.5 ug/mL. Format: functional.
Turning to `CCCCCCCCCCS(=O)(=O)NC(C)=O`, the MIC99 was found to be 1.5 µg/mL (≈ 5.69 µM).
